The source of these data is patent US6340455B1, “Testkit and method” (Peridoc AB, priority 1996, dated 2002).

In the test the test system is individuals (patients with severe marginal periodontitis, healthy control individuals). Kind of test: Skin Prick Test with Lipid A. As to conditions: for % + with 0.1 mg Lipid A / % + with 1 mg Lipid A: result registered after 18 to 24 hours. The class given is in vivo, human. Here is the method: Skin Prick Test with Lipid A was performed on three groups of individuals:
Patients with severe marginal periodontitis which responds to treatment.
Healthy control individuals without marginal periodontitis.
(The test was performed according to a routine procedure as described in Aas K, Backman A, Berlin L, Weeke B. Standardization of allergen extracts with appropriate methods. The combined use of skin prick testing and standardization of allergen extracts. Acta Allergol 1978; 33:238-240, and in Malling H-J. The skin prick testing and the use of histamine references. Allergy 1984; 39:596-601).
Patient and disease characteristics for the three groups can be found in Table 1 below. GI (gingival index) was used as measure of active disease. […] The test substance was Lipid A dissolved in water (0.1 mg/ml and 1 mg/ml). Histamine (10 mg/ml in water) and water served as positive and negative controls, respectively. The result was registered after 18 to 24 hours.
Students t-test was employed to test levels of significance for differences between test and control groups.

The mark [1] stands for this setting: healthy control individuals without marginal periodontitis, n=16.
[2] abbreviates: patients with severe marginal periodontitis which responds to treatment (GI ≦ 20), n=38.
The mark [3] stands for this setting: refractory patients: severe marginal periodontitis not responding to treatment (GI > 20), n=14.

As for `NCCc1c[nH]cn1` [histamine], the “skin prick reaction (positive/negative)” value (all individuals of the three groups, histamine 10 mg/ml in water, positive control) was “reacted positively”.
In the case of Lipid A, the “% + with 0.1 mg Lipid A” value was determined as 18.8% under setting [1], 21.1% under setting [2] and 7.1% under setting [3]. In addition, the “% + with 1 mg Lipid A” value is, setting by setting: under setting [1], 50.0%; under setting [2], 57.9%; under setting [3], 7.1%. Further, the “response to Lipid A in skin prick test (in words)” value (refractory patients (severe marginal periodontitis not responding to treatment)) was “almost no positive response”.
